These results are taken from ChEMBL document CHEMBL5214960 (J Med Chem, 2022).

Data set [1] concerns the target T1, Low molecular weight phosphotyrosine protein phosphatase (Homo sapiens, UniProt P24666).
T1 sequence (P24666 whole entry): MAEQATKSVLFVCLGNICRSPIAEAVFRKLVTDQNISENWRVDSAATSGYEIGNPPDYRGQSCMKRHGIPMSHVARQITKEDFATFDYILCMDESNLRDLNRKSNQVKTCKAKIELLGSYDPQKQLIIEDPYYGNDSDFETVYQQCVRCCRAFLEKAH
Nature of the data set: Inhibition of His-tagged human LMW-PTP expressed in Escherichia coli BL21 using pNPP as substrate incubated for 10 mins by microplate reader based spectrophotometric analysis.

The target in data set [2] is Tyrosine-protein phosphatase non-receptor type 11 (Homo sapiens, UniProt Q06124). Description: Inhibition of SHP2 (unknown origin).
The target of data set [3] is Tyrosine-protein phosphatase non-receptor type 2 (Homo sapiens, UniProt P17706). Description: Inhibition of TC-PTP (unknown origin).
Data set [4] is described as follows: Unbound Cmax in plasma of Sprague-Dawley rat at 30 mg/kg, po measured after 24 hrs by LC-MS/MS analysis. It counts as ADME, organism-based. Particulars: in vivo.
For data set [5], the target named is T2, Low molecular weight phosphotyrosine protein phosphatase (Mus musculus, UniProt Q9D358).
T2 sequence (Q9D358 whole entry): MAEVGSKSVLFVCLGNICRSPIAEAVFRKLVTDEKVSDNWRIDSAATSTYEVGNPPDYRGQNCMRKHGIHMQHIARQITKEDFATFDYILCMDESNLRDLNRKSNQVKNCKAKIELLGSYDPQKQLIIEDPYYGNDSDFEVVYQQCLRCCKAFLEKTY
Description: Inhibition of N-terminal His-tagged full length mouse LMW-PTP expressed in Escherichia coli BL21(DE3) by […] analysis.

Data set [6] can be described thus: AUC(0 to 12 hrs) in Sprague-Dawley rat plasma at 30 mg/kg, po measured after 24 hrs by LC-MS/MS analysis. Format: ADME, organism-based. Further details: time 24 hrs, dose 30 mg/kg, route po. To be noted: in vivo.
A short description of data set [7]: Half life in CD-1 mouse plasma at 2 mg/kg, iv measured after 8 hrs by LC-MS/MS analysis. Format: ADME, organism-based. Particulars: mouse, in vivo, iv, 2 mg/kg, 8 h.
A short description of data set [8]: Cmax in Sprague-Dawley rat plasma at 30 mg/kg, po measured after 24 hrs by LC-MS/MS analysis. Format: ADME, organism-based. Further details: time 24 hrs, dose 30 mg/kg, route po. Particulars: in vivo.
For data set [9], the target named is Receptor-type tyrosine-protein phosphatase S (Homo sapiens, UniProt Q13332). Description: Inhibition of PTPsigma (unknown origin).
The target in data set [10] is Dual specificity protein phosphatase 3 (Homo sapiens, UniProt P51452). Description: Inhibition of VHR (unknown origin).
The next data set deals with CYP2C9 (Homo sapiens, UniProt P11712). Nature of the data set: Inhibition of human hepatic CYP2C9 using diclofenac as substrate measured after 10 mins by LC-MS analysis relative to control. It counts as ADME, tissue-based. Also noted: concentration or dose not given beside the values. To be noted: human hepatic CYP2C9 (liver), probe diclofenac.
The nature of data set [11]: AUC(0 to 8 hrs) in CD-1 mouse plasma at 10 mg/kg, po measured after 8 hrs by LC-MS/MS analysis. Format: ADME, organism-based. Also noted: dose 10 mg/kg, time 8 hrs, route po. To be noted: in vivo.
Data set [12] deals with Tyrosine-protein phosphatase non-receptor type 7 (Homo sapiens, UniProt P35236). Description: Inhibition of HePTP (unknown origin).
The nature of data set [13]: Metabolic stability in mouse hepatic microsome at 4 uM measured after 30 mins by LC-MS analysis. Particulars: liver microsomes, read-out: Stability. Format: ADME. For orientation: Liver microsomes are vesicles of endoplasmic reticulum, rich in cytochrome P450 enzymes.

Structures are written as SMILES. pIC50: −log10 of the molar value.

Dual specificity protein phosphatase 3, sequence (P51452 whole entry): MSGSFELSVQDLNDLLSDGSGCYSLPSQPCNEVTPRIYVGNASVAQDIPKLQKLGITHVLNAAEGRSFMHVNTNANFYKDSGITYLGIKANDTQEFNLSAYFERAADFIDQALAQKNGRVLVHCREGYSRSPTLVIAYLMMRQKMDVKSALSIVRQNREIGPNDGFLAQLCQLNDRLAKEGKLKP
Tyrosine-protein phosphatase non-receptor type 7, sequence (P35236 whole entry): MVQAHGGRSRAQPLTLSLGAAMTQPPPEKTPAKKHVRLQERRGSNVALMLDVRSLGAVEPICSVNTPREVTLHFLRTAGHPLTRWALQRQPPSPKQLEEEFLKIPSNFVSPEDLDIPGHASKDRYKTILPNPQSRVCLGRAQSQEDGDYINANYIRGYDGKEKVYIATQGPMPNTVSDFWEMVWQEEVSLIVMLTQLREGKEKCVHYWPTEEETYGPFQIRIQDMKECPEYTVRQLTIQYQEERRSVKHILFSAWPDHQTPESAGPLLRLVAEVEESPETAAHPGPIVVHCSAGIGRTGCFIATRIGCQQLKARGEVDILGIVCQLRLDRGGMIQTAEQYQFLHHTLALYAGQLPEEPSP
Tyrosine-protein phosphatase non-receptor type 11, sequence (Q06124 whole entry): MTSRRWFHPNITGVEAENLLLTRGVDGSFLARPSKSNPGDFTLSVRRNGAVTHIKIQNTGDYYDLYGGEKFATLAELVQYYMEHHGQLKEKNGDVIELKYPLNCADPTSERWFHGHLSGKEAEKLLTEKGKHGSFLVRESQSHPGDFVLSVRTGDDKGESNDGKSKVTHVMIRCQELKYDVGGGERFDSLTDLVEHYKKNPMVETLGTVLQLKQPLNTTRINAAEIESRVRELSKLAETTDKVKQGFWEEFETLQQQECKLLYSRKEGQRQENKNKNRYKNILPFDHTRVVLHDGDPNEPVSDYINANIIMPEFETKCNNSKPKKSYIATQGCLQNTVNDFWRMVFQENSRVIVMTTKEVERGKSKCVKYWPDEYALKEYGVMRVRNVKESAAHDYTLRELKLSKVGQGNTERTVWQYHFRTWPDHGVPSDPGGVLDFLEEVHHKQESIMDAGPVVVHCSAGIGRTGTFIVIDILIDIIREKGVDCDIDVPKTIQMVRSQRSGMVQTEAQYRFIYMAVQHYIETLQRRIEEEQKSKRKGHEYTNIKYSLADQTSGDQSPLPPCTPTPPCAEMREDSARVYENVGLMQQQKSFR
Receptor-type tyrosine-protein phosphatase S, sequence (Q13332 whole entry): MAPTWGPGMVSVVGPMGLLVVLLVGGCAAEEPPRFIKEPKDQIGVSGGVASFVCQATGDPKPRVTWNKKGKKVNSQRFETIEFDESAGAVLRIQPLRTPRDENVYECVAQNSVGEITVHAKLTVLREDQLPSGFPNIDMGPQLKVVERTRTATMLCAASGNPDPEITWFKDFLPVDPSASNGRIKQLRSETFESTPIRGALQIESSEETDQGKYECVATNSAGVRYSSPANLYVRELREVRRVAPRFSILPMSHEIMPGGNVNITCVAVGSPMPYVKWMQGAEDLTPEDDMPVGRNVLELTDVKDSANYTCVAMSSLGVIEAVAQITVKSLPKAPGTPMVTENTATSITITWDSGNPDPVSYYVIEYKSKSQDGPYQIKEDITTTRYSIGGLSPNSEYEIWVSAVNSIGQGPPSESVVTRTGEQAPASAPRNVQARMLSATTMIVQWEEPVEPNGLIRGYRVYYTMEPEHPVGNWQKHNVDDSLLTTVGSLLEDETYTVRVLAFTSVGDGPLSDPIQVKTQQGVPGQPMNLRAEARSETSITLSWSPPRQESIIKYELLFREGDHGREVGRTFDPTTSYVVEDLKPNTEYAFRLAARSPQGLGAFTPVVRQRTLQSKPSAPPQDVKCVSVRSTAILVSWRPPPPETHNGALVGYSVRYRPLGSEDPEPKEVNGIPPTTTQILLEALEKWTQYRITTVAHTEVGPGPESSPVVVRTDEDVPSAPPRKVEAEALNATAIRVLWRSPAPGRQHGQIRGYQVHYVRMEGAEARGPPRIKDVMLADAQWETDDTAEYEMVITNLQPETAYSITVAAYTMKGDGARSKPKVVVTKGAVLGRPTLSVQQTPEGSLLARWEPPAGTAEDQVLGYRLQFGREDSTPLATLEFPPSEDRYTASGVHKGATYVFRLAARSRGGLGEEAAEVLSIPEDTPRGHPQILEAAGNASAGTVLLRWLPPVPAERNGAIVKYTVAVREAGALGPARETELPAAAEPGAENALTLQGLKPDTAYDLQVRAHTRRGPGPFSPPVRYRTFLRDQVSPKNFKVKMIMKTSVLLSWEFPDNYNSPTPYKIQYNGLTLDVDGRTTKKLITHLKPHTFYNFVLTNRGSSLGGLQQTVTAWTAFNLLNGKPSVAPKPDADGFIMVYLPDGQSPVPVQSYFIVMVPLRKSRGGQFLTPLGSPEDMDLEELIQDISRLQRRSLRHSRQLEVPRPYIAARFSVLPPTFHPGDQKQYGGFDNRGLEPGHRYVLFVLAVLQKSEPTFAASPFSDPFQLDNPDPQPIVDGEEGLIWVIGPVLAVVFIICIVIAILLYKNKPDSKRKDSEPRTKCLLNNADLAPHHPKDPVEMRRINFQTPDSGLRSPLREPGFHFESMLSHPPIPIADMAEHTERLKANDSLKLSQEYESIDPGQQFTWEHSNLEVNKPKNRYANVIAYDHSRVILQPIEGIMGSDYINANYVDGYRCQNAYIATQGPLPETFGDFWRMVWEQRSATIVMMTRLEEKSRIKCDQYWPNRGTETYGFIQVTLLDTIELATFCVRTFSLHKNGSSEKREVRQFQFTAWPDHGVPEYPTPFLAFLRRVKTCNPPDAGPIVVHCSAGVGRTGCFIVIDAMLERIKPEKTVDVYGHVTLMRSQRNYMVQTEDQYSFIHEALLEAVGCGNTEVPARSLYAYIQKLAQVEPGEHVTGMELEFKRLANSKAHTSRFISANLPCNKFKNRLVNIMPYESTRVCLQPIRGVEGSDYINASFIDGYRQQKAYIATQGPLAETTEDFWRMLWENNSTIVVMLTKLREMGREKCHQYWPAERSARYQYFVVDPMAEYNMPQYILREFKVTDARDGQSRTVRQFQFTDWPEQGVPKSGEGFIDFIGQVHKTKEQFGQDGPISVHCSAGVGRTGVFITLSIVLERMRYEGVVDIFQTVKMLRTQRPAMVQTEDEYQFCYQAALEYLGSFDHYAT
CYP2C9, sequence (P11712 whole entry): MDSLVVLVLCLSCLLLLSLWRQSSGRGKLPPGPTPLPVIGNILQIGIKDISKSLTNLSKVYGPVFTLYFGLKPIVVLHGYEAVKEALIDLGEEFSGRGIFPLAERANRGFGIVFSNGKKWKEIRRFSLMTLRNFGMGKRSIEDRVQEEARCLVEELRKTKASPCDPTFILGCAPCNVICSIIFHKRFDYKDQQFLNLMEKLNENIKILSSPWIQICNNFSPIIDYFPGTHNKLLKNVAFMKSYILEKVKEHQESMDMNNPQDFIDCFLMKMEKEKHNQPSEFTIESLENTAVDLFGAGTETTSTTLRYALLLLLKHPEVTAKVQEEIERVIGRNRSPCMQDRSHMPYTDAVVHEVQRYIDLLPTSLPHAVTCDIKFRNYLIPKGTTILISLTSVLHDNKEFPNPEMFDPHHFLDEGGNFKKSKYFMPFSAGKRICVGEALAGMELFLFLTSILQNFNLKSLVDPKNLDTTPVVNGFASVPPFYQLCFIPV
Tyrosine-protein phosphatase non-receptor type 2, sequence (P17706 whole entry): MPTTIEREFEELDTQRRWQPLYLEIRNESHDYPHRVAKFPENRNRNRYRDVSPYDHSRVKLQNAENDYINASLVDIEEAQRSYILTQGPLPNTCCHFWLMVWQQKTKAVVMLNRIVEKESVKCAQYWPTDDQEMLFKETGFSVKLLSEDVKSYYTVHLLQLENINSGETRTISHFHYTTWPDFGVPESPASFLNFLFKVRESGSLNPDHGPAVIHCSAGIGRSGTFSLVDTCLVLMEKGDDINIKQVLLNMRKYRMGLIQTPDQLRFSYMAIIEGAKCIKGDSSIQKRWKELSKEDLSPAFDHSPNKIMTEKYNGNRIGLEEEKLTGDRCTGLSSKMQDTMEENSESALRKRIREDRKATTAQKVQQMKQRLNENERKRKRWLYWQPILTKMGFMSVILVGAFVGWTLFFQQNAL

As to `Cc1c(Br)cc(NC(=O)NS(=O)(=O)O)cc1Br`, the pIC50 was 8.40 in data set [1]; < 5.00 in [2]; < 5.00 in [3]; 8.52 in [5]; < 5.00 in data set [9]; < 5.00 in data set [10]. Besides, the pIC50 in data set [12] is < 5.00. This compound yielded a fCmax in data set [4] of 158 nM. In addition, the AUC in data set [6] worked out at 42.8 µM·h; in [11], 37.3 µM·h. In data set [7], the t1/2 worked out at 1.41 h. In [8], the peak level (Cmax) was 6.59 µM. This compound showed an inhibition at 10 min against CYP2C9 of 0%. In addition, the remaining at 0.5 h, 4 µM in data set [13] came to 30%.

Usually pIC50 stands for −log10 of the IC50, conventionally taken in molar units. By AUC is commonly meant concentration integrated over time. By Cmax is commonly meant the highest concentration seen after dosing. For orientation: inhibition means the share of the control response that was lost under treatment.
